Results taken from patent US20250195536A1, “BICYCLOOCTANE KRAS INHIBITORS” (Incyte Corporation, priority 2023, published 2025).

Columns and labels:
[1] = Caco2 assay (permeability, Papp A-B); assay type: in vitro ADME; settings: human, Caco-2, absorptive direction (A-B), 50 μM test compound, 4% BSA in receiver
In short: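 Absorptive (A-B) Papp: 50 μM test compound in HBSS added to apical side of 22-25-day Caco-2 monolayers (TEER 300 Ω·cm^2), receiver buffer containing 4% BSA. After 120 min at 37 °C, 5% CO2, both sides analysed by LCMS; Papp calculated from flux rate normalized to area and donor amount.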

KRAS G12V = KRAS G12V (Homo sapiens, UniProt P01116, G12V); experiment: GDP-GTP exchange assay (KRAS G12V); assay type: biochemical; settings: bodipy-GDP/GppNHp exchange with SOS1; 3 h incubation after GppNHp-SOS1;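 further: one dagger IC50 up to 100 nM and two daggers above 100 nM up to 1 μM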
Sequence of KRAS G12V (P01116 1-188 isoform P01116-2 G12V): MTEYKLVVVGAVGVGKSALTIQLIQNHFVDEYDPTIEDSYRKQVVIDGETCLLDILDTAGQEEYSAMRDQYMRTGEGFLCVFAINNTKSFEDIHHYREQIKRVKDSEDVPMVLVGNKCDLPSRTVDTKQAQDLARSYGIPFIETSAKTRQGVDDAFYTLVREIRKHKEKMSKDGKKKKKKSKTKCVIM
In short: (§1)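 IC50 came from a four-parameter fit of fluorescence loss (485/520 nm) as SOS1 (150 nM) swapped bodipy-GDP for GppNHp (500 μM) on 2.5 nM KRAS, final concentrations. Compounds were pre-incubated 4 h at r.t. (pH 7.5 Hepes, 10 mM MgCl2); exchange ran 2 h (G12D) or 3 h (G12V).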

KRAS G12D = KRAS G12D (Homo sapiens, UniProt P01116, G12D); experiment: GDP-GTP exchange assay (KRAS G12D); assay type: biochemical; settings: bodipy-GDP/GppNHp exchange with SOS1; 4 h pre-incubation, 2 h reaction;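 further: one dagger IC50 up to 100 nM and two daggers above 100 nM up to 1 μM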
Sequence of KRAS G12D (P01116 1-188 isoform P01116-2 G12D): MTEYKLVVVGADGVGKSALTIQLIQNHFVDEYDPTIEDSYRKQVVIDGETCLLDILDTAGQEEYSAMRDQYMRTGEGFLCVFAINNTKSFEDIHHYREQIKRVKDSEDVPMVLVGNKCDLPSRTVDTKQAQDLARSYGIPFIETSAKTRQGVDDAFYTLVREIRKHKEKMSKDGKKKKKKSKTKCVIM
In short: as §1

| SMILES | Papp A→B at 120 min, 50 μM [1] | G12V_exchange (KRAS_G12V exchange assay IC50) (KRAS G12V) | G12D_exchange (KRAS_G12D exchange assay IC50) (KRAS G12D) |
| --- | --- | --- | --- |
| Cc1nc2c(F)c(-c3cccc(Cl)c3Cl)c(CCC#N)cc2c2c1cc([C@H]1[C@H]3C[C@H](CN(c4ccc(C(F)(F)F)cc4)C3)N1C(=O)C1CC1)n2[C@H]1[C@H]2CN[C@@H]1C2 (atropisomer, axis not shown; (Ra)) [Example 12, 3-((Ra)-1-((1R,4R,5S)-2-azabicyclo[2.1.1]hexan-5-yl)-2-((1S,5R,7R)-6-(cyclopropanecarbonyl)-3-(4-(trifluoromethyl)phenyl)-3,6-diazabicyclo[3.2.1]octan-7-yl)-7-(2,3-dichlorophenyl)-6-fluoro-4-methyl-1H-pyrrolo[3,2-c]quinolin-8-yl)propanenitrile] | ≤ 0.5 ×10⁻⁶ cm/s | † | †† |
| Cc1nc2c(F)c(-c3cccc(Cl)c3Cl)c(CCC#N)cc2c2c1cc([C@H]1[C@H]3C[C@H](CN(c4cccc(OC(F)(F)F)c4)C3)N1C(=O)C1CC1)n2[C@H]1[C@H]2CN[C@@H]1C2 (atropisomer, axis not shown; (Ra)) [Example 20, 3-((Ra)-1-((1R,4R,5S)-2-azabicyclo[2.1.1]hexan-5-yl)-2-((1S,5R,7R)-6-(cyclopropanecarbonyl)-3-(3-(trifluoromethoxy)phenyl)-3,6-diazabicyclo[3.2.1]octan-7-yl)-7-(2,3-dichlorophenyl)-6-fluoro-4-methyl-1H-pyrrolo[3,2-c]quinolin-8-yl)propanenitrile] | ≤ 0.5 ×10⁻⁶ cm/s | † | †† |
| Cc1nc2c(F)c(-c3cccc(Cl)c3Cl)c(CCC#N)cc2c2c1cc([C@H]1[C@H]3C[C@H](CN(c4cnn(C(F)F)c4)C3)N1C(=O)C1CC1)n2[C@H]1[C@H]2CN[C@@H]1C2 (atropisomer, axis not shown; (Ra)) [Example 8, 3-((Ra)-1-((1R,4R,5S)-2-azabicyclo[2.1.1]hexan-5-yl)-2-((1S,5R,7R)-6-(cyclopropanecarbonyl)-3-(1-(difluoromethyl)-1H-pyrazol-4-yl)-3,6-diazabicyclo[3.2.1]octan-7-yl)-7-(2,3-dichlorophenyl)-6-fluoro-4-methyl-1H-pyrrolo[3,2-c]quinolin-8-yl)propanenitrile] | ≤ 0.5 ×10⁻⁶ cm/s | † | † |
| Cc1nc2c(F)c(-c3cccc(Cl)c3Cl)c(CCC#N)cc2c2c1cc([C@H]1[C@H]3C[C@H](CN(c4ccccc4)C3)N1C(=O)C1CC1)n2[C@H]1[C@H]2CN[C@@H]1C2 (atropisomer, axis not shown; (Ra)) [Example 1, 3-((Ra)-1-((1R,4R,5S)-2-Azabicyclo[2.1.1]hexan-5-yl)-2-((1 S,5R,7R)-6-(cyclopropanecarbonyl)-3-phenyl-3,6-diazabicyclo[3.2.1]octan-7-yl)-7-(2,3-dichlorophenyl)-6-fluoro-4-methyl-1H-pyrrolo[3,2-c]quinolin-8-yl)propanenitrile] | ≤ 0.5 ×10⁻⁶ cm/s | † | †† |
| Cc1nc2c(F)c(-c3cccc(Cl)c3Cl)c(CCC#N)cc2c2c1cc([C@H]1[C@H]3C[C@H](CN(c4ccc(C(F)(F)F)cn4)C3)N1C(=O)C1CC1)n2[C@H]1[C@H]2CN[C@@H]1C2 [Example 30, 3-((Ra)-1-((1R,4R,5S)-2-Azabicyclo[2.1.1]hexan-5-yl)-2-((1 S,5R,7R)-6-(cyclopropanecarbonyl)-3-(5-(trifluoromethyl)pyridin-2-yl)-3,6-diazabicyclo[3.2.1]octan-7-yl)-7-(2,3-dichlorophenyl)-6-fluoro-4-methyl-1H-pyrrolo[3,2-c]quinolin-8-yl)propanenitrile] | ≤ 0.5 ×10⁻⁶ cm/s | † | † |

Next, values leading:

| Papp A→B at 120 min, 50 μM [1] | G12V_exchange (KRAS_G12V exchange assay IC50) (KRAS G12V) | G12D_exchange (KRAS_G12D exchange assay IC50) (KRAS G12D) | SMILES |
| --- | --- | --- | --- |
| ≤ 0.5 ×10⁻⁶ cm/s | † | † | Cc1nc2c(F)c(-c3cccc(Cl)c3Cl)c(CCC#N)cc2c2c1cc([C@H]1[C@H]3C[C@H](CN(c4ccccn4)C3)N1C(=O)C1CC1)n2[C@H]1[C@H]2CN[C@@H]1C2 (atropisomer, axis not shown; (Ra)) [Example 36, 3-((Ra)-1-((1R,4R,5S)-2-azabicyclo[2.1.1]hexan-5-yl)-2-((1S,5R,7R)-6-(cyclopropanecarbonyl)-3-(pyridin-2-yl)-3,6-diazabicyclo[3.2.1]octan-7-yl)-7-(2,3-dichlorophenyl)-6-fluoro-4-methyl-1H-pyrrolo[3,2-c]quinolin-8-yl)propanenitrile] |
| ≤ 0.5 ×10⁻⁶ cm/s | † | † | Cc1nc(N2C[C@@H]3C[C@H](C2)N(C(=O)C2CC2)[C@H]3c2cc3c(C)nc4c(F)c(-c5cccc(Cl)c5Cl)c(CCC#N)cc4c3n2[C@H]2[C@H]3CN[C@@H]2C3)sc1C (atropisomer, axis not shown; (Ra)) [Example 95, 3-((Ra)-1-((1R,4R,5S)-2-azabicyclo[2.1.1]hexan-5-yl)-2-((1S,5R,7R)-6-(cyclopropanecarbonyl)-3-(4,5-dimethylthiazol-2-yl)-3,6-diazabicyclo[3.2.1]octan-7-yl)-7-(2,3-dichlorophenyl)-6-fluoro-4-methyl-1H-pyrrolo[3,2-c]quinolin-8-yl)propanenitrile] |
| ≤ 0.5 ×10⁻⁶ cm/s | † | † | Cc1nc2c(F)c(-c3cccc(Cl)c3Cl)c(CCC#N)cc2c2c1cc([C@H]1[C@H]3C[C@H](CN(c4ccnc(C(F)(F)F)c4)C3)N1C(=O)C1CC1)n2[C@H]1[C@H]2CN[C@@H]1C2 (atropisomer, axis not shown; (Ra)) [Example 38, 3-((Ra)-1-((1R,4R,5S)-2-azabicyclo[2.1.1]hexan-5-yl)-2-((1S,5R,7R)-6-(cyclopropanecarbonyl)-3-(2-(trifluoromethyl)pyridin-4-yl)-3,6-diazabicyclo[3.2.1]octan-7-yl)-7-(2,3-dichlorophenyl)-6-fluoro-4-methyl-1H-pyrrolo[3,2-c]quinolin-8-yl)propanenitrile] |
| ≤ 0.5 ×10⁻⁶ cm/s | † | † | Cc1nc2c(F)c(-c3cccc(Cl)c3Cl)c(CCC#N)cc2c2c1cc([C@H]1[C@H]3C[C@H](CN(c4ncc(C5CC5)s4)C3)N1C(=O)C1CC1)n2[C@H]1[C@H]2CN[C@@H]1C2 (atropisomer, axis not shown; (Ra)) [Example 106, 3-((Ra)-1-((1R,4R,5S)-2-azabicyclo[2.1.1]hexan-5-yl)-2-((1S,5R,7R)-6-(cyclopropanecarbonyl)-3-(5-cyclopropylthiazol-2-yl)-3,6-diazabicyclo[3.2.1]octan-7-yl)-7-(2,3-dichlorophenyl)-6-fluoro-4-methyl-1H-pyrrolo[3,2-c]quinolin-8-yl)propanenitrile] |
| ≤ 0.5 ×10⁻⁶ cm/s | † | † | Cc1nc2c(F)c(-c3cccc(Cl)c3Cl)c(CCC#N)cc2c2c1cc([C@H]1[C@H]3C[C@H](CN(c4nccc(C(F)(F)F)n4)C3)N1C(=O)C1CC1)n2[C@H]1[C@H]2CN[C@@H]1C2 (atropisomer, axis not shown; (Ra)) [Example 43, 3-((Ra)-1-((1R,4R,5S)-2-azabicyclo[2.1.1]hexan-5-yl)-2-((1S,5R,7R)-6-(cyclopropanecarbonyl)-3-(4-(trifluoromethyl)pyrimidin-2-yl)-3,6-diazabicyclo[3.2.1]octan-7-yl)-7-(2,3-dichlorophenyl)-6-fluoro-4-methyl-1H-pyrrolo[3,2-c]quinolin-8-yl)propanenitrile] |
| ≤ 0.5 ×10⁻⁶ cm/s | † | † | Cc1noc(C)c1S(=O)(=O)N1C[C@@H]2C[C@H](C1)N(C(=O)C1CC1)[C@H]2c1cc2c(C)nc3c(F)c(-c4cccc(Cl)c4Cl)c(CCC#N)cc3c2n1[C@H]1[C@H]2CN[C@@H]1C2 (atropisomer, axis not shown; (Ra)) [Example 110, 3-((Ra)-1-((1R,4R,5S)-2-Azabicyclo[2.1.1]hexan-5-yl)-2-((1 S,5R,7R)-6-(cyclopropanecarbonyl)-3-((3,5-dimethylisoxazol-4-yl)sulfonyl)-3,6-diazabicyclo[3.2.1]octan-7-yl)-7-(2,3-dichlorophenyl)-6-fluoro-4-methyl-1H-pyrrolo[3,2-c]quinolin-8-yl)propanenitrile] |
| ≤ 0.5 ×10⁻⁶ cm/s | † | † | Cc1sc(N2C[C@@H]3C[C@H](C2)N(C(=O)C2CC2)[C@H]3c2cc3c(C)nc4c(F)c(-c5cccc(Cl)c5Cl)c(CCC#N)cc4c3n2[C@H]2[C@H]3CN[C@@H]2C3)nc1C(C)(F)F (atropisomer, axis not shown; (Ra)) [Example 103, 3-((Ra)-1-((1R,4R,5S)-2-azabicyclo[2.1.1]hexan-5-yl)-2-((1S,5R,7R)-6-(cyclopropanecarbonyl)-3-(4-(1,1-difluoroethyl)-5-methylthiazol-2-yl)-3,6-diazabicyclo[3.2.1]octan-7-yl)-7-(2,3-dichlorophenyl)-6-fluoro-4-methyl-1H-pyrrolo[3,2-c]quinolin-8-yl)propanenitrile] |
